# Reference: patent US20100168103A1, “DIARYL PIPERIDINE COMPOUNDS AS CALCIUM CHANNEL BLOCKERS” (NEUROMED PHARMACEUTICALS LTD., priority 2006, published 2010)
# Like-named read-outs stand apart in the source and are kept apart here.
# Molecular target: T1, rat brain N-type calcium channel subunits (α1B+α2δ+β1b cDNA subunits) (Rattus norvegicus, UniProt Q02294)
# T1 construct: expressed in transfected cells; host or cells: HEK 293
# Test: N-type calcium channel block, whole cell patch clamp in transfected HEK 293 cells
# Type: cell-based
# Details: holding potential −80 mV to +10 mV
# Method: N-type calcium channel blocking activity was assayed in human embryonic kidney cells, HEK 293, stably transfected with the rat brain N-type calcium channel subunits (α1B+α2δ+β1b cDNA subunits). Alternatively, N-type calcium channels (α1B+α2δ+β1b cDNA subunits), L-type channels (α1C+α2δ+β1b cDNA subunits) and P/Q-type channels (α1A+α2δ+β1b cDNA subunits) were transiently expressed in HEK 293 cells. Briefly, cells were cultured in Dulbecco's modified eagle medium (DMEM) supplemented with 10% fetal bovine serum, 200 U/ml penicillin and 0.2 mg/ml streptomycin at 37° C. with 5% CO2. At 85% confluency cells were split with 0.25% trypsin/1 mM EDTA and plated at 10% confluency on glass coverslips. At 12 hours the medium was replaced and the cells transiently transfected using a standard calcium phosphate protocol and the appropriate calcium channel cDNA's. Fresh DMEM was supplied and the cells transferred to 28° C./5% CO2. Cells were incubated for 1 to 2 days prior to whole cell recording.
# Whole cell patch clamp experiments were performed using an Axopatch 200B amplifier (Axon Instruments, Burlingame, Calif.) linked to a personal computer equipped with pCLAMP software. The external and internal recording solutions contained, respectively, 5 mM BaCl2, 10 mM MgCl2, 10 mM HEPES, 40 mM TEACl, 10 mM glucose, 87.5 mM CsCl (pH 7.2) and 108 mM CsMS, 4 mM MgCl2, 9 mM EGTA, 9 mM HEPES (pH 7.2). Currents were typically elicited from a holding potential of −80 mV to +10 mV using Clampex software (Axon Instruments). Typically, currents were first elicited with low frequency stimulation (0.067 Hz) and allowed to stabilize prior to application of the compounds. The compounds were then applied during the low frequency pulse trains for two to three minutes to assess tonic block, and subsequently the pulse frequency was increased to 0.2 Hz to assess frequency dependent block. Data were analyzed using Clampfit (Axon Instruments) and SigmaPlot 4.0 (Jandel Scientific).
# [1] = low frequency stimulation 0.067 Hz (tonic block), 5 mM BaCl2, read-out: IC50 @ 0.067 Hz
# [2] = pulse frequency 0.2 Hz (frequency dependent block), 5 mM BaCl2, read-out: IC50 @ 0.2 Hz
# T1 sequence (Q02294 whole entry): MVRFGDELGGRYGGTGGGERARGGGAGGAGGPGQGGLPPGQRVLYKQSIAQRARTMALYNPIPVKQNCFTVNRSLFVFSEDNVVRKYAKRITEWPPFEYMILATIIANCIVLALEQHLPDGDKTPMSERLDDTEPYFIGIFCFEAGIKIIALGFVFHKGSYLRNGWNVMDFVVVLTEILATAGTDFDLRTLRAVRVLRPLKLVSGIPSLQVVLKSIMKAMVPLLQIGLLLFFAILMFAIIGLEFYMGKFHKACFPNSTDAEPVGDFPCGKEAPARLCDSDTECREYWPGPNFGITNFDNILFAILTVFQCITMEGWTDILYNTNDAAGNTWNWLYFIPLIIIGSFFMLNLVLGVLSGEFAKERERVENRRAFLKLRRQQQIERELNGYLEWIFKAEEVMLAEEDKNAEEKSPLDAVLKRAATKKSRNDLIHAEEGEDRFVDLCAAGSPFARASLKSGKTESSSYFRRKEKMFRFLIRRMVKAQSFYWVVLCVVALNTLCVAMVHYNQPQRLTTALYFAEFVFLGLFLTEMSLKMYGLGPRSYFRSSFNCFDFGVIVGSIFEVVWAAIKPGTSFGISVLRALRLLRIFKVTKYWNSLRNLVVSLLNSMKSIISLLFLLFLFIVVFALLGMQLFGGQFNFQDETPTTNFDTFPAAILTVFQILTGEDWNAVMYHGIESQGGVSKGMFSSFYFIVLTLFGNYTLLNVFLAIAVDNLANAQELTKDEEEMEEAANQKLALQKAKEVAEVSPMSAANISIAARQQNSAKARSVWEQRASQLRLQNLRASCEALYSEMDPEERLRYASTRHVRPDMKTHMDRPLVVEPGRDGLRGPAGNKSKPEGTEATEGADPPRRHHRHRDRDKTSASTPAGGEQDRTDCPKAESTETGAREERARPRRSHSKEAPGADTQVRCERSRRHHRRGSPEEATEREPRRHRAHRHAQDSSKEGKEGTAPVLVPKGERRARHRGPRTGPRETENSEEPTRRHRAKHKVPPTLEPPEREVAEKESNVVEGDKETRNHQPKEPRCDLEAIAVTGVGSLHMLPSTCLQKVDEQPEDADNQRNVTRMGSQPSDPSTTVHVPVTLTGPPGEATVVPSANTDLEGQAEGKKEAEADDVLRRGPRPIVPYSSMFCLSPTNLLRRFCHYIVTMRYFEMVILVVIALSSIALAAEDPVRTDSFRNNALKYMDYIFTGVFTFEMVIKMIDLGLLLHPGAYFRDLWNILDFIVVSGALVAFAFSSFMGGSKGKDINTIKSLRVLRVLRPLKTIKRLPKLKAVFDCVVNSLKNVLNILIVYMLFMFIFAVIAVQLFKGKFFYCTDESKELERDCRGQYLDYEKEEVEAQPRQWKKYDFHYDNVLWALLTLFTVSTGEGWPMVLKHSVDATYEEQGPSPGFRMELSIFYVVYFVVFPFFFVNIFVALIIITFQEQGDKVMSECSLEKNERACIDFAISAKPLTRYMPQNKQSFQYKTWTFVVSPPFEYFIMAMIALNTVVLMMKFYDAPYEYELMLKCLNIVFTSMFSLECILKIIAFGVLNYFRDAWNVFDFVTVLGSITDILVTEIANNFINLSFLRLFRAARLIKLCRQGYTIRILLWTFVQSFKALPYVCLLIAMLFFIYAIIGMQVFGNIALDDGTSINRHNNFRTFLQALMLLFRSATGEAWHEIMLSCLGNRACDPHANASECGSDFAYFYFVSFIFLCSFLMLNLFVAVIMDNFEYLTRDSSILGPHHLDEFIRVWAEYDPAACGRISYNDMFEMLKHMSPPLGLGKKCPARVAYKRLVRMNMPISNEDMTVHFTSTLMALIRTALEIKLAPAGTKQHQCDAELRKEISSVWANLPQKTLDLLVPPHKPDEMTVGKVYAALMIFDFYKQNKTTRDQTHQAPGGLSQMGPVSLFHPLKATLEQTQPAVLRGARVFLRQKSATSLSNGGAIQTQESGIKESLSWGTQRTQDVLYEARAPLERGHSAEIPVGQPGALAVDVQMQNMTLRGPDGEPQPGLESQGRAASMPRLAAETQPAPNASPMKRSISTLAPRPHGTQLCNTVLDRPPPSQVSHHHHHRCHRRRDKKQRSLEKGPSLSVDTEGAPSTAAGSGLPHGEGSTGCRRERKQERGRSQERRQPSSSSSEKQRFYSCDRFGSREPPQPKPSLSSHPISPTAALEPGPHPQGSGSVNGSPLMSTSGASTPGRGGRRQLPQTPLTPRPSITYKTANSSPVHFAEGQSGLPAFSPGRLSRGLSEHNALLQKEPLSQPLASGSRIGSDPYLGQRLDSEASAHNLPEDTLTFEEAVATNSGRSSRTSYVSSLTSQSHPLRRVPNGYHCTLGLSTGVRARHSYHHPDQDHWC
# T1 sequence (P54290 25-944 partner limits assumed): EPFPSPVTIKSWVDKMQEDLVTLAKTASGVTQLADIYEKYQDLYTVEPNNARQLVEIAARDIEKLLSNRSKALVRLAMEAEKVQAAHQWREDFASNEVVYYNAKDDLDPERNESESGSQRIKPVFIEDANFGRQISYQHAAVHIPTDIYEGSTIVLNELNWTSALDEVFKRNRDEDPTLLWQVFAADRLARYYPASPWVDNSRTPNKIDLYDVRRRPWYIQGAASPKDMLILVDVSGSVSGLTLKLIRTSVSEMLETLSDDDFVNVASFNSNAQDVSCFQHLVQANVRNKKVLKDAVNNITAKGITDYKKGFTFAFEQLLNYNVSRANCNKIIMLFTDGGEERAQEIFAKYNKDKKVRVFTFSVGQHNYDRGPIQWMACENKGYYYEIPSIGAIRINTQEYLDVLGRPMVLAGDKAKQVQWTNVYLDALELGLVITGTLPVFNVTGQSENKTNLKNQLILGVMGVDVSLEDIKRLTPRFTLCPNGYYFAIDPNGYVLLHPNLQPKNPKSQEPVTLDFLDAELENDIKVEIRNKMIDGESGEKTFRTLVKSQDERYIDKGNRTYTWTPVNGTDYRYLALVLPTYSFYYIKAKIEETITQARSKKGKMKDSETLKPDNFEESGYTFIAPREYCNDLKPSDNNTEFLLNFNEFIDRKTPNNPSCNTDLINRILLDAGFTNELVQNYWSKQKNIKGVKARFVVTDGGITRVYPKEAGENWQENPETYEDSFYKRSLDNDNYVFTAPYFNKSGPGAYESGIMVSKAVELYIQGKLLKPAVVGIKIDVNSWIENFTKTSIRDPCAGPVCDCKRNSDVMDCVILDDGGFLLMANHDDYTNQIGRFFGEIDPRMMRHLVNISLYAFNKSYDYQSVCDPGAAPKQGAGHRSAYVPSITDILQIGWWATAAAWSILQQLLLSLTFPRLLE
# T1 sequence (P54290 945-1091 partner limits assumed): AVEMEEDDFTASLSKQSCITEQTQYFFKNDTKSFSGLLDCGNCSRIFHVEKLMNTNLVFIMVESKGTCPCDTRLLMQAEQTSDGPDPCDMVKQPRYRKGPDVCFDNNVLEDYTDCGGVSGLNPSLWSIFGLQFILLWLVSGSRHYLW
# T1 sequence (P54283 whole entry partner): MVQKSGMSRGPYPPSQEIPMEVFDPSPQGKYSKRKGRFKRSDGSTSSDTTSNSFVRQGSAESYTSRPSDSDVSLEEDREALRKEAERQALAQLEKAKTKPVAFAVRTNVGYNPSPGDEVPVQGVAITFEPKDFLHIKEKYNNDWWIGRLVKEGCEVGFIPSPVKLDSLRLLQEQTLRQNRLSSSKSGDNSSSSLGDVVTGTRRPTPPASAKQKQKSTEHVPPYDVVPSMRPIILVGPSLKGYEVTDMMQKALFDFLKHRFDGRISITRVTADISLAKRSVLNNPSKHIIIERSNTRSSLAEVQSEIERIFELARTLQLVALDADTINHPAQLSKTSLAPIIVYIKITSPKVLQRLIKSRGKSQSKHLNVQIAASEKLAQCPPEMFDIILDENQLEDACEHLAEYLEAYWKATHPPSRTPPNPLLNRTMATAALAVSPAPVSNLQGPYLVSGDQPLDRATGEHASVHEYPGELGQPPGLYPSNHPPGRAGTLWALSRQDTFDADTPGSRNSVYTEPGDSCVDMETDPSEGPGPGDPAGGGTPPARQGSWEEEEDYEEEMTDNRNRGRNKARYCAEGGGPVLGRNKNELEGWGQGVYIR
SMILES,IC50 [1],IC50 [2]
"CN1CCN(CC2CCN(C(=O)CC(c3ccccc3)c3ccccc3)CC2)CC1 [Compound 10, 1-(4-((4-methylpiperazin-1-yl)methyl)piperidin-1-yl)-3,3-diphenylpropanon-1-one]",2520 nM,1720 nM
"Cc1ccccc1C(CC(=O)N1CCC(CN2CC(C)NC(C)C2)CC1)c1ccccc1C (stereo not drawn) [Compound 15, 1-(4-((3,5-dimethylpiperazin-1-yl)methyl)piperidin-1-yl)-3,3-di-o-tolylpropan-1-one]",1850 nM,1640 nM
"CC1CN(C(=O)C2CCN(C(=O)COC(c3ccccc3)c3ccccc3)CC2)CC(C)N1 (stereo not drawn) [Compound 21, 2-(benzhydryloxy)-1-(4-(3,5-dimethylpiperazine-1-carbonyl)piperidin-1-yl)ethanone]",1640 nM,990 nM
"CN1CCN(C(=O)C2CCN(C(=O)CNC(c3ccccc3)c3ccccc3)CC2)CC1 [Compound 7, 2-(benzhydrylamino)-1-(4-(4-methylpiperazine-1-carbonyl)piperidin-1-yl)ethanone]",4790 nM,2380 nM
"CC1CN(C(=O)C2CCN(C(=O)CC(c3ccccc3)c3ccccc3)CC2)CC(C)N1 (stereo not drawn) [Compound 24, 1-(4-(3,5-dimethylpiperazine-1-carbonyl)piperidin-1-yl)-3,3-diphenylpropan-1-one]",> 5460 nM,> 3570 nM
"CC(C)(C)N1CCN(C(=O)C2CCN(C(=O)COC(c3ccc(F)cc3)c3ccc(F)cc3)CC2)CC1 [Compound 82, 2-(bis(4-fluorophenyl)methoxy)-1-(4-(4-tert-butylpiperazine-1-carbonyl)piperidin-1-yl)ethanone]",2590 nM,15600 nM
"CC(C)(C)N1CCN(CC2CCN(C(=O)CCCCC(c3ccccc3)c3ccccc3)CC2)CC1 [Compound 74, 1-(4-((4-tert-butylpiperazin-1-yl)methyl)piperidin-1-yl)-6,6-diphenylhexan-1-one]",420 nM,290 nM
"CC1CN(CC2(c3ccccc3)CCN(C(=O)CC(c3ccccc3)c3ccccc3)CC2)CC(C)N1 (stereo not drawn) [Compound 30, 1-(4-((3,5-dimethylpiperazin-1-yl)methyl)-4-phenylpiperidin-1-yl)-3,3-diphenylpropan-1-one]",490 nM,320 nM
"CN1CCN(CC2CCN(C(=O)NC(c3ccccc3)c3ccccc3)CC2)CC1 [Compound 11, N-benzhydryl-4-((4-methylpiperazine-1-yl)methyl)piperidine-1-carboxamide]",28400 nM,1500 nM
"O=C(C[S+]([O-])C(c1ccccc1)c1ccccc1)N1CCC(CN2CCCCC2)(c2ccccc2)CC1 (stereo not drawn) [Compound 48, 2-(benzhydrylsulfinyl)-1-(4-phenyl-4-(piperidin-1-ylmethyl)piperidin-1-yl)ethanone]",1250 nM,930 nM
"CC(C)(C)N1CCN(C(=O)C2CCN(C(=O)NC(c3ccccc3)c3ccccc3)CC2)CC1 [Compound 80, N-benzhydryl-4-(4-tert-butylpiperazin-1-carbonyl)piperidine-1-carboxamide]",11600 nM,
"Cc1ccccc1C(CC(=O)N1CCC(C(=O)N2CC(C)NC(C)C2)CC1)c1ccccc1C (stereo not drawn) [Compound 16, 1-(4-(3,5-dimethylpiperazine-1-carbonyl)piperidin-1-yl)-3,3-di-o-tolylpropan-1-one]",5850 nM,3710 nM
"CN1CCN(C(=O)C2CCN(C(=O)NC(c3ccccc3)c3ccccc3)CC2)CC1 [Compound 13, N-benzhydryl-4-(4-methylpiperazine-1-carbonyl)piperidine-1-carboxamide]",4480 nM,2210 nM
"CN1CCN(CC2CCN(C(=O)C[S+]([O-])C(c3ccccc3)c3ccccc3)CC2)CC1 (stereo not drawn) [Compound 6, 2-(benzhydrylsulfinyl)-1-(4-((4-methylpiperazin-1-yl)methyl)piperidin-1-yl)ethanone]",8550 nM,5200 nM
"CC(C)(C)N1CCN(C(=O)C2CCN(C(=O)CC(c3ccc(F)cc3)c3ccc(F)cc3)CC2)CC1 [Compound 81, 1-(4-(4-tert-butylpiperazine-1-carbonyl)piperidin-1-yl)-3,3-bis(4-fluorophenyl)propan-1-one]",4400 nM,2470 nM
"CN1CCN(C(=O)C2(c3ccccc3)CCN(C(=O)NC(c3ccccc3)c3ccccc3)CC2)CC1 [Compound 38, N-benzhydryl-4-(4-methylpiperazine-1-carbonyl)-4-phenylpiperidine-1-carboxamide]",> 2290 nM,1420 nM
O=C(NC(c1cccc(F)c1)c1cccc(F)c1)N1CCC(CN2CCCCC2)CC1 [Compound 60],5590 nM,

# Results, then the molecule that gave them:
IC50 [1],IC50 [2],SMILES
630 nM,450 nM,O=C(COC(c1ccccc1)c1ccccc1)N1CCC(C(c2ccccc2)N2CCCCC2)CC1 (stereo not drawn) [Compound 52]
2300 nM,1500 nM,"O=C(CC(c1ccccc1)c1ccccc1)N1CCC(C(c2ccccc2)N2CCCCC2)CC1 (stereo not drawn) [Compound 50, 3,3-diphenyl-1-(4-(phenyl(piperidin-1-yl)methyl)piperidin-1-yl)propan-1-one]"
270 nM,150 nM,"Cc1ccccc1C(CC(=O)N1CCC(C(c2ccccc2)N2CCN(C)CC2)CC1)c1ccccc1C (stereo not drawn) [Compound 56, 1-(4-((4-methylpiperazin-1-yl)(phenyl)methyl)piperidin-1-yl)-3,3-di-o-tolylpropan-1-one]"
1900 nM,1060 nM,"Cc1ccccc1C(CC(=O)N1CCC(CN2CCN(C)CC2)CC1)c1ccccc1C [Compound 14, 1-(4-((4-methylpiperazin-1-yl)methyl)piperidin-1-yl)-3,3-di-o-tolylpropan-1-one]"
6910 nM,2710 nM,"COc1ccccc1C(CC(=O)N1CCC(C(=O)N2CCN(C(C)(C)C)CC2)CC1)c1ccccc1OC [Compound 87, 1-(4-(4-tert-butylpiperazine-1-carbonyl)piperidin-1-yl)-3,3-bis(2-methoxyphenyl)propan-1-one]"
2180 nM,1230 nM,"CC(C)(C)N1CCN(CC2CCN(C(=O)CC(c3ccccc3)c3ccccc3)CC2)CC1 [Compound 66, 1-(4-((4-tert-butylpiperazin-1-yl)methyl)piperidin-1-yl)-3,3-diphenylpropan-1-one]"
610 nM,310 nM,"Cc1ccccc1C(CC(=O)N1CCC(CN2CC(C)NC(C)C2)(c2ccccc2)CC1)c1ccccc1C (stereo not drawn) [Compound 31, 1-(4-((3,5-dimethylpiperazin-1-yl)methyl)-4-phenylpiperidin-1-yl)-3,3-di-o-tolylpropan-1-one]"
3520 nM,1880 nM,"Cc1ccccc1C(CC(=O)N1CCC(C(=O)N2CCNCC2)CC1)c1ccccc1C [Compound 17, 1-(4-(piperazine-1-carbonyl)piperidin-1-yl)-3,3-di-o-tolylpropan-1-one]"
2360 nM,1320 nM,"CN1CCN(C(c2ccccc2)C2CCN(C(=O)CC(c3ccccc3)c3ccccc3)CC2)CC1 (stereo not drawn) [Compound 54, 1-(4-((4-methylpiperazin-1-yl)(phenyl)methyl)piperidin-1-yl)-3,3-diphenylpropan-1-one]"
6590 nM,2440 nM,"Cc1ccccc1C(CC(=O)N1CCC(CN2CCCCC2)CC1)c1ccccc1C [Compound 42, 1-(4-(piperidin-1-ylmethyl)piperidin-1-yl)-3,3-di-o-tolylpropan-1-one]"
530 nM,250 nM,"Cc1ccccc1C(CC(=O)N1CCC(CN2CCN(C(C)(C)C)CC2)CC1)c1ccccc1C [Compound 67, 1-(4-((4-tert-butylpiperazin-1-yl)methyl)piperidin-1-yl)-3,3-di-o-tolylpropan-1-one]"
1480 nM,940 nM,"Cc1ccccc1C(CC(=O)N1CCC(C(=O)N2CCN(C(C)(C)C)CC2)CC1)c1ccccc1C [Compound 79, 1-(4-(4-tert-butylpiperazine-1-carbonyl)piperidin-1-yl)-3,3-di-o-tolylpropan-1-one]"
1410 nM,800 nM,"Cc1ccccc1C(CC(=O)N1CCC(C(c2ccccc2)N2CCN(C(C)(C)C)CC2)CC1)c1ccccc1C (stereo not drawn) [Compound 101, 1-(4-((4-tert-butylpiperazin-1-yl)(phenyl)methyl)piperidin-1-yl)-3,3-di-o-tolylpropan-1-one]"
930 nM,440 nM,"Cc1ccccc1C(CC(=O)N1CCC(C(c2ccccc2)N2CC(C)NC(C)C2)CC1)c1ccccc1C (stereo not drawn) [Compound 57, 1-(4-((3,5-dimethylpiperazin-1-yl)(phenyl)methyl)piperidin-1-yl)-3,3-di-o-tolylpropan-1-one]"
